Data published in patent publication US9695155B2, “Herbicidal substituted pyrimidinyloxy benzene compounds” (E. I. DU PONT DE NEMOURS AND COMPANY, priority 2013, dated 2017).

Experiments:
[1] = test system: blackgrass; test: Test C postemergence; format: in vivo, Alopecurus myosuroides; conditions: Alopecurus myosuroides, post-emergence
How it was run: (§1)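 Preemergence: seeds sown in a loam soil–sand blend and sprayed with test chemical in a non-phytotoxic solvent mixture containing surfactant. Postemergence: plants at 2 to 18 cm (1- to 4-leaf stage) in peat-based medium, treated with the same formulation. Greenhouse 13 to 15 days, then visual rating 0 (no effect) to 100 (complete control).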

[2] = test system: morningglory; test: Test C preemergence; format: in vivo, Ipomoea coccinea; conditions: Ipomoea, pre-emergence
How it was run: as §1

[3] = test system: barnyardgrass; test: Test A postemergence; format: in vivo, Echinochloa crus-galli; conditions: Echinochloa crus-galli, post-emergence, 240 h
How it was run: (§2)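 Injury scores run from 0, no effect, to 100, complete control, judged by eye against untreated plants roughly 10 days after treatment. Chemicals carried a surfactant in a non-phytotoxic solvent and went onto loam–sand soil preemergence or onto one- to two-leaf seedlings postemergence.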

[4] = test system: soybean; test: Test C postemergence; format: in vivo, Glycine max; conditions: Glycine max, post-emergence
How it was run: as §1

[5] = test system: barnyardgrass; test: Test A preemergence; format: in vivo, Echinochloa crus-galli; conditions: Echinochloa crus-galli, pre-emergence, 240 h
How it was run: as §2

[6] = test system: giant foxtail; test: Test C postemergence; format: in vivo, Setaria faberii; conditions: Setaria faberi, post-emergence
How it was run: as §1

[7] = test system: johnsongrass; test: Test C preemergence; format: in vivo, Sorghum halepense; conditions: Sorghum halepense, pre-emergence
How it was run: as §1

[8] = test system: Italian ryegrass; test: Test C preemergence; format: in vivo, Lolium multiflorum; conditions: Lolium multiflorum, pre-emergence
How it was run: as §1

[9] = test system: galium; test: Test C preemergence; format: in vivo, Galium aparine; conditions: Galium, pre-emergence
How it was run: as §1

[10] = test system: corn; test: Test A preemergence; format: in vivo, Zea mays; conditions: Zea mays, pre-emergence, 240 h
How it was run: as §2

[11] = test system: velvetleaf; test: Test C postemergence; format: in vivo, Abutilon theophrasti; conditions: Abutilon theophrasti, post-emergence
How it was run: as §1

[12] = test system: galium; test: Test C postemergence; format: in vivo, Galium aparine; conditions: Galium, post-emergence
How it was run: as §1

[13] = test system: wheat; test: Test A postemergence; format: in vivo, Triticum aestivum; conditions: Triticum aestivum, post-emergence, 240 h, 0 to 100 scale where 0 is no effect and 100 is complete control, read-out: Plant response rating, Wheat
How it was run: as §2

[14] = test system: lambsquarters; test: Test C postemergence; format: in vivo, Chenopodium album; conditions: Chenopodium album, post-emergence
How it was run: as §1

[15] = test system: ragweed; test: Test C postemergence; format: in vivo, Ambrosia elatior; conditions: Ambrosia artemisiifolia, post-emergence
How it was run: as §1

[16] = 125 g ai/ha, 0 to 100 scale where 0 is no effect and 100 is complete control, read-out: Plant response rating, Barnyardgrass

`N#Cc1cccc(Oc2ncc(F)cn2)c1-n1cc(C(F)(F)F)cn1` [Compound 79, 3-[(5-fluoro-2-pyrimidinyl)oxy]-2-[4-(trifluoromethyl)-1H-pyrazol-1-yl]benzonitrile] was tested, and the pest or weed control at 125 g/ha ([1]; 125 g ai/ha, postemergence, read-out: Plant response rating (0 to 100), Blackgrass) was 35%, the pest or weed control at 250 g/ha ([1]; 250 g ai/ha, postemergence, read-out: Plant response rating (0 to 100), Blackgrass) was 80% and the pest or weed control at 31 g/ha ([1]; Postemergence, 31 g ai/ha, scale 0 to 100 (0 no effect, 100 complete control), 13 to 15 days, read-out: Plant response rating, Blackgrass) was 10%. The pest or weed control at 62 g/ha ([1]; Postemergence, 62 g ai/ha, scale 0 to 100 (0 no effect, 100 complete control), read-out: Plant response rating, Blackgrass) was 30%, the pest or weed control at 62 g/ha ([2]; 62 g ai/ha, preemergence, scale 0 (no effect) to 100 (complete control), read-out: Morningglory plant response rating) was 100% and the pest or weed control at 125 g/ha ([2]; 125 g ai/ha, preemergence, scale 0 (no effect) to 100 (complete control), read-out: Morningglory plant response rating) was 100%. For the same compound, the pest or weed control at 250 g/ha ([2]; 250 g ai/ha, preemergence, scale 0 (no effect) to 100 (complete control), read-out: Morningglory plant response rating) was 100%, the pest or weed control at 31 g/ha ([2]; Preemergence, 31 g ai/ha, scale 0 to 100, 0 no effect, 100 complete control, read-out: Plant response rating, Morningglory) was 95% and the pest or weed control at 125 g/ha [3, 16] was 100%. For the same compound, the pest or weed control at 500 g/ha ([3]; 500 g ai/ha, 0 to 100 scale, 0 no effect, 100 complete control, read-out: Plant response rating Barnyardgrass) was 100%, the Soybean plant response rating (crop injury, 0-100 scale) at 125 g/ha ([4]; 125 g ai/ha, postemergence, read-out: Plant response rating (0 to 100), Soybean) was 90% and the Soybean plant response rating (crop injury, 0-100 scale) at 250 g/ha ([4]; 250 g ai/ha, postemergence) was 95%. It also gave a Soybean plant response rating (crop injury, 0-100 scale) at 31 g/ha ([4]; Postemergence, 31 g ai/ha, scale 0 to 100 (0 no effect, 100 complete control), 13 to 15 days) of 65%, a Soybean plant response rating (crop injury, 0-100 scale) at 62 g/ha ([4]; Postemergence, 62 g ai/ha, scale 0 to 100 (0 no effect, 100 complete control)) of 85% and a pest or weed control at 125 g/ha [5, 16] of 100%. For the same compound, the pest or weed control at 500 g/ha ([5]; 500 g ai/ha, 0 to 100 scale, 0 no effect, 100 complete control, approx. 10 days, read-out: Barnyardgrass plant response rating) was 100%, the pest or weed control at 125 g/ha ([6]; 125 g ai/ha, postemergence, read-out: Plant response rating (0 to 100), Foxtail, Giant) was 20% and the pest or weed control at 250 g/ha ([6]; 250 g ai/ha, postemergence, read-out: Plant response rating (0 to 100), Foxtail, Giant) was 65%. For the same compound, the pest or weed control at 31 g/ha ([6]; Postemergence, 31 g ai/ha, scale 0 to 100 (0 no effect, 100 complete control), 13 to 15 days, read-out: Plant response rating, Foxtail, Giant) was 10%, the pest or weed control at 62 g/ha ([6]; Postemergence, 62 g ai/ha, scale 0 to 100 (0 no effect, 100 complete control), read-out: Plant response rating, Foxtail, Giant) was 10% and the pest or weed control at 62 g/ha ([7]; 62 g ai/ha, preemergence, scale 0 (no effect) to 100 (complete control), read-out: Johnsongrass plant response rating) was 90%. The pest or weed control at 125 g/ha ([7]; 125 g ai/ha, preemergence, scale 0 (no effect) to 100 (complete control), read-out: Johnsongrass plant response rating) was 100%, the pest or weed control at 250 g/ha ([7]; 250 g ai/ha, preemergence, scale 0 (no effect) to 100 (complete control), read-out: Johnsongrass plant response rating) was 100% and the pest or weed control at 31 g/ha ([7]; Preemergence, 31 g ai/ha, scale 0 to 100, 0 no effect, 100 complete control, read-out: Plant response rating, Johnsongrass) was 75%. It also gave a pest or weed control at 62 g/ha ([8]; 62 g ai/ha, preemergence, scale 0 (no effect) to 100 (complete control), read-out: Ryegrass, Italian plant response rating) of 90%, a pest or weed control at 125 g/ha ([8]; 125 g ai/ha, preemergence, scale 0 (no effect) to 100 (complete control), read-out: Ryegrass, Italian plant response rating) of 90% and a pest or weed control at 250 g/ha ([8]; 250 g ai/ha, preemergence, scale 0 (no effect) to 100 (complete control), read-out: Ryegrass, Italian plant response rating) of 90%. It also gave a pest or weed control at 31 g/ha ([8]; Preemergence, 31 g ai/ha, scale 0 to 100, 0 no effect, 100 complete control, read-out: Plant response rating, Ryegrass, Italian) of 40%, a pest or weed control at 62 g/ha ([9]; 62 g ai/ha, preemergence, scale 0 (no effect) to 100 (complete control), read-out: Galium plant response rating) of 90% and a pest or weed control at 125 g/ha ([9]; 125 g ai/ha, preemergence, scale 0 (no effect) to 100 (complete control), read-out: Galium plant response rating) of 90%. For the same compound, the pest or weed control at 250 g/ha ([9]; 250 g ai/ha, preemergence, scale 0 (no effect) to 100 (complete control), read-out: Galium plant response rating) was 90%, the pest or weed control at 31 g/ha ([9]; Preemergence, 31 g ai/ha, scale 0 to 100, 0 no effect, 100 complete control, read-out: Plant response rating, Galium) was 90% and the Corn plant response rating (crop injury, 0 = no effect, 100 = complete kill) at 125 g/ha ([10]; 125 g ai/ha, 0 to 100 scale where 0 is no effect and 100 is complete control) was 80%. It also gave a plant injury at 500 g/ha ([10]; 500 g ai/ha, 0 to 100 scale, 0 no effect, 100 complete control, approx. 10 days, read-out: Corn plant response rating) of 100%, a pest or weed control at 125 g/ha ([11]; 125 g ai/ha, postemergence, read-out: Plant response rating (0 to 100), Velvetleaf) of 70% and a pest or weed control at 250 g/ha ([11]; 250 g ai/ha, postemergence, read-out: Plant response rating (0 to 100), Velvetleaf) of 90%. For the same compound, the pest or weed control at 31 g/ha ([11]; Postemergence, 31 g ai/ha, scale 0 to 100 (0 no effect, 100 complete control), 13 to 15 days, read-out: Plant response rating, Velvetleaf) was 55%, the pest or weed control at 62 g/ha ([11]; Postemergence, 62 g ai/ha, scale 0 to 100 (0 no effect, 100 complete control), read-out: Plant response rating, Velvetleaf) was 70% and the pest or weed control at 125 g/ha ([12]; 125 g ai/ha, postemergence, read-out: Plant response rating (0 to 100), Galium) was 80%. The pest or weed control at 250 g/ha ([12]; 250 g ai/ha, postemergence, read-out: Plant response rating (0 to 100), Galium) was 95%, the pest or weed control at 31 g/ha ([12]; Postemergence, 31 g ai/ha, scale 0 to 100 (0 no effect, 100 complete control), 13 to 15 days, read-out: Plant response rating, Galium) was 65% and the pest or weed control at 62 g/ha ([12]; Postemergence, 62 g ai/ha, scale 0 to 100 (0 no effect, 100 complete control), read-out: Plant response rating, Galium) was 75%. The plant injury at 125 g/ha ([13]; 125 g ai/ha) was 80%, the plant injury at 500 g/ha ([13]; 500 g ai/ha) was 90% and the pest or weed control at 125 g/ha ([14]; 125 g ai/ha, postemergence, read-out: Plant response rating (0 to 100), Lambsquarters) was 95%. The pest or weed control at 250 g/ha ([14]; 250 g ai/ha, postemergence, read-out: Plant response rating (0 to 100), Lambsquarters) was 98%, the pest or weed control at 31 g/ha ([14]; Postemergence, 31 g ai/ha, scale 0 to 100 (0 no effect, 100 complete control), 13 to 15 days, read-out: Plant response rating, Lambsquarters) was 90% and the pest or weed control at 62 g/ha ([14]; Postemergence, 62 g ai/ha, scale 0 to 100 (0 no effect, 100 complete control), read-out: Plant response rating, Lambsquarters) was 95%. The pest or weed control at 125 g/ha ([15]; 125 g ai/ha, postemergence, read-out: Plant response rating (0 to 100), Ragweed) was 70%, the pest or weed control at 250 g/ha ([15]; 250 g ai/ha, postemergence, read-out: Plant response rating (0 to 100), Ragweed) was 85% and the pest or weed control at 31 g/ha ([15]; Postemergence, 31 g ai/ha, scale 0 to 100 (0 no effect, 100 complete control), 13 to 15 days, read-out: Plant response rating, Ragweed) was 55%. For the same compound, the pest or weed control at 62 g/ha ([15]; Postemergence, 62 g ai/ha, scale 0 to 100 (0 no effect, 100 complete control), read-out: Plant response rating, Ragweed) was 70%.
